# Results: ChEMBL document CHEMBL3525924, “Cytochrome P450 3A-mediated microsomal biotransformation of 1α,25-dihydroxyvitamin D3 in mouse and human liver: drug-related induction and inhibition of catabolism” (Drug Metab Dispos, 2012)
# Test system: not listed separately
# Experiment: Drug metabolism in dexamethasone treated CD1 mouse liver microsomes assessed as metabolite formation at 20 uM after 30 mins by LC/MS analysis in presence of NADPH and CYP1A2 inhibitor furafyline
# Type: ADME
# Settings: 0.5 h
row,Drug metabolism,SMILES
1,metabolite_detected,C=C1/C(=C\C=C2/CCC[C@]3(C)[C@@H]([C@H](C)CC[C@H](O)C(C)(C)O)CC[C@@H]23)C[C@@H](O)C[C@@H]1O

# Test system: not listed separately
# Experiment: Drug metabolism in CD1 mouse liver microsomes assessed as metabolite formation at 20 uM after 30 mins by LC/MS analysis in presence of NADPH and CYP2C inhibitor sulfaphenazole
# Type: ADME
# Settings: 0.5 h
row,Drug metabolism,SMILES
1,metabolite_detected,C=C1/C(=C\C=C2/CCC[C@]3(C)[C@@H]([C@H](C)CC[C@H](O)C(C)(C)O)CC[C@@H]23)C[C@@H](O)C[C@@H]1O

# Test system: not listed separately
# Experiment: Drug metabolism in prednisone treated CD1 mouse liver microsomes assessed as metabolite formation at 20 uM after 30 mins by LC/MS analysis in presence of NADPH and CYP2C inhibitor sulfaphenazole
# Type: ADME
# Settings: 0.5 h
row,Drug metabolism,SMILES
1,metabolite_detected,C=C1/C(=C\C=C2/CCC[C@]3(C)[C@@H]([C@H](C)CC[C@H](O)C(C)(C)O)CC[C@@H]23)C[C@@H](O)C[C@@H]1O

# Test system: Liver microsome
# Experiment: Drug metabolism in human liver microsomes assessed as IC50 for tamoxifen-mediated inhibition of metabolite formation at 20 uM after 30 mins by LC/MS analysis
# Type: ADME
# Settings: 0.5 h
row,IC50 [nM],SMILES
1,> 40000,C=C1/C(=C\C=C2/CCC[C@]3(C)[C@@H]([C@H](C)CC[C@H](O)C(C)(C)O)CC[C@@H]23)C[C@@H](O)C[C@@H]1O

# Test system: not listed separately
# Experiment: Drug metabolism in prednisone treated CD1 mouse liver microsomes assessed as metabolite formation at 20 uM after 30 mins by LC/MS analysis in presence of NADPH and CYP2E inhibitor di-ethyldithiocarbamate
# Type: ADME
# Settings: 0.5 h
row,Drug metabolism,SMILES
1,metabolite_detected,C=C1/C(=C\C=C2/CCC[C@]3(C)[C@@H]([C@H](C)CC[C@H](O)C(C)(C)O)CC[C@@H]23)C[C@@H](O)C[C@@H]1O

# Test system: not listed separately
# Experiment: Drug metabolism in CD1 mouse liver microsomes assessed as metabolite formation at 20 uM after 30 mins by LC/MS analysis in presence of NADPH and CYP2E inhibitor di-ethyldithiocarbamate
# Type: ADME
# Settings: 0.5 h
row,Drug metabolism,SMILES
1,metabolite_detected,C=C1/C(=C\C=C2/CCC[C@]3(C)[C@@H]([C@H](C)CC[C@H](O)C(C)(C)O)CC[C@@H]23)C[C@@H](O)C[C@@H]1O

# Test system: not listed separately
# Experiment: Drug metabolism in prednisone treated CD1 mouse liver microsomes treated with 20 uM of 1alpha,25(OH)2D3 assessed as metabolite formation after 30 mins by LC/MS analysis in presence of NADPH
# Type: ADME
# Settings: 0.5 h
row,Drug metabolism,SMILES
1,metabolite_detected,C=C1/C(=C\C=C2/CCC[C@]3(C)[C@@H]([C@H](C)CC[C@H](O)C(C)(C)O)CC[C@@H]23)C[C@@H](O)C[C@@H]1O

# Test system: Liver microsome
# Experiment: Drug level in human liver microsomes assessed as retention time treated with 20 uM of 1alpha,25(OH)2D3 after 30 mins by LC/MS analysis in presence of NADPH
# Type: ADME
# Settings: 0.5 h
row,Retention_time [min],SMILES
1,9,C=C1/C(=C\C=C2/CCC[C@]3(C)[C@@H]([C@H](C)CC[C@H](O)C(C)(C)O)CC[C@@H]23)C[C@@H](O)C[C@@H]1O

# Test system: not listed separately
# Experiment: Drug metabolism in dexamethasone treated CD1 mouse liver microsomes assessed as metabolite formation at 20 uM after 30 mins by LC/MS analysis in presence of NADPH and CYP2E inhibitor di-ethyldithiocarbamate
# Type: ADME
# Settings: 0.5 h
row,Drug metabolism,SMILES
1,metabolite_detected,C=C1/C(=C\C=C2/CCC[C@]3(C)[C@@H]([C@H](C)CC[C@H](O)C(C)(C)O)CC[C@@H]23)C[C@@H](O)C[C@@H]1O

# Test system: Liver microsome
# Experiment: Drug metabolism in human liver microsomes assessed as IC50 for clarithromycin-mediated inhibition of metabolite formation at 20 uM after 30 mins by LC/MS analysis
# Type: ADME
# Settings: 0.5 h
row,IC50 [nM],SMILES
1,> 30000,C=C1/C(=C\C=C2/CCC[C@]3(C)[C@@H]([C@H](C)CC[C@H](O)C(C)(C)O)CC[C@@H]23)C[C@@H](O)C[C@@H]1O

# Test system: Liver microsome
# Experiment: Drug metabolism in human liver microsomes assessed as IC50 for docetaxel-mediated inhibition of metabolite formation at 20 uM after 30 mins by LC/MS analysis
# Type: ADME
# Settings: 0.5 h
row,IC50 [nM],SMILES
1,12,C=C1/C(=C\C=C2/CCC[C@]3(C)[C@@H]([C@H](C)CC[C@H](O)C(C)(C)O)CC[C@@H]23)C[C@@H](O)C[C@@H]1O

# Test system: not listed separately
# Experiment: Drug metabolism in prednisone treated CD1 mouse liver microsomes assessed as metabolite formation at 20 uM after 30 mins by LC/MS analysis in presence of NADPH and CYP2B inhibitor orphenadrine
# Type: ADME
# Settings: 0.5 h
row,Drug metabolism,SMILES
1,metabolite_detected,C=C1/C(=C\C=C2/CCC[C@]3(C)[C@@H]([C@H](C)CC[C@H](O)C(C)(C)O)CC[C@@H]23)C[C@@H](O)C[C@@H]1O

# Test system: not listed separately
# Experiment: Drug metabolism in dexamethasone treated CD1 mouse liver microsomes assessed as metabolite formation at 20 uM after 30 mins by LC/MS analysis in presence of NADPH and CYP2D inhibitor quinine
# Type: ADME
# Settings: 0.5 h
row,Drug metabolism,SMILES
1,metabolite_detected,C=C1/C(=C\C=C2/CCC[C@]3(C)[C@@H]([C@H](C)CC[C@H](O)C(C)(C)O)CC[C@@H]23)C[C@@H](O)C[C@@H]1O

# Test system: not listed separately
# Experiment: Drug metabolism in CD1 mouse liver microsomes assessed as metabolite formation at 20 uM after 30 mins by LC/MS analysis in presence of NADPH and CYP1A2 inhibitor furafyline
# Type: ADME
# Settings: 0.5 h
row,Drug metabolism,SMILES
1,metabolite_detected,C=C1/C(=C\C=C2/CCC[C@]3(C)[C@@H]([C@H](C)CC[C@H](O)C(C)(C)O)CC[C@@H]23)C[C@@H](O)C[C@@H]1O

# Test system: not listed separately
# Experiment: Drug metabolism in CD1 mouse liver microsomes assessed as metabolite formation at 20 uM after 30 mins by LC/MS analysis in presence of NADPH and CYP2B inhibitor orphenadrine
# Type: ADME
# Settings: 0.5 h
row,Drug metabolism,SMILES
1,metabolite_detected,C=C1/C(=C\C=C2/CCC[C@]3(C)[C@@H]([C@H](C)CC[C@H](O)C(C)(C)O)CC[C@@H]23)C[C@@H](O)C[C@@H]1O

# Test system: not listed separately
# Experiment: Drug metabolism in CD1 mouse liver microsomes assessed as metabolite formation at 20 uM after 30 mins by LC/MS analysis in presence of NADPH and CYP1A1 inhibitor alpha-naphthoflavone
# Type: ADME
# Settings: 0.5 h
row,Drug metabolism,SMILES
1,metabolite_detected,C=C1/C(=C\C=C2/CCC[C@]3(C)[C@@H]([C@H](C)CC[C@H](O)C(C)(C)O)CC[C@@H]23)C[C@@H](O)C[C@@H]1O

# Test system: not listed separately
# Experiment: Drug metabolism in CD1 mouse liver microsomes assessed as metabolite formation at 20 uM after 30 mins by LC/MS analysis in presence of NADPH and CYP2D inhibitor quinine
# Type: ADME
# Settings: 0.5 h
row,Drug metabolism,SMILES
1,metabolite_detected,C=C1/C(=C\C=C2/CCC[C@]3(C)[C@@H]([C@H](C)CC[C@H](O)C(C)(C)O)CC[C@@H]23)C[C@@H](O)C[C@@H]1O

# Test system: not listed separately
# Experiment: Drug metabolism in dexamethasone treated CD1 mouse liver microsomes assessed as metabolite formation at 20 uM after 30 mins by LC/MS analysis in presence of NADPH and CYP2C inhibitor sulfaphenazole
# Type: ADME
# Settings: 0.5 h
row,Drug metabolism,SMILES
1,metabolite_detected,C=C1/C(=C\C=C2/CCC[C@]3(C)[C@@H]([C@H](C)CC[C@H](O)C(C)(C)O)CC[C@@H]23)C[C@@H](O)C[C@@H]1O

# Test system: not listed separately
# Experiment: Drug level in dexamethasone treated CD1 mouse liver microsomes treated with 20 uM of 1alpha,25(OH)2D3 after 30 mins by LC/MS analysis in presence of NADPH relative to vehicle treated mouse
# Type: ADME
# Settings: 0.5 h
row,Drug metabolism,SMILES
1,metabolite_detected,C=C1/C(=C\C=C2/CCC[C@]3(C)[C@@H]([C@H](C)CC[C@H](O)C(C)(C)O)CC[C@@H]23)C[C@@H](O)C[C@@H]1O

# Test system: Liver microsome
# Experiment: Drug metabolism in human liver microsomes assessed as IC50 for ritonavir-mediated inhibition of metabolite formation at 20 uM after 30 mins by LC/MS analysis
# Type: ADME
# Settings: 0.5 h
row,IC50 [nM],SMILES
1,8,C=C1/C(=C\C=C2/CCC[C@]3(C)[C@@H]([C@H](C)CC[C@H](O)C(C)(C)O)CC[C@@H]23)C[C@@H](O)C[C@@H]1O

# Test system: not listed separately
# Experiment: Drug metabolism in prednisone treated CD1 mouse liver microsomes assessed as metabolite formation at 20 uM after 30 mins by LC/MS analysis in presence of NADPH and CYP2A inhibitor 8-methoxypsoralen
# Type: ADME
# Settings: 0.5 h
row,Drug metabolism,SMILES
1,metabolite_detected,C=C1/C(=C\C=C2/CCC[C@]3(C)[C@@H]([C@H](C)CC[C@H](O)C(C)(C)O)CC[C@@H]23)C[C@@H](O)C[C@@H]1O

# Test system: not listed separately
# Experiment: Drug metabolism in prednisone treated CD1 mouse liver microsomes assessed as metabolite formation at 20 uM after 30 mins by LC/MS analysis in presence of NADPH and CYP1A1 inhibitor alpha-naphthoflavone
# Type: ADME
# Settings: 0.5 h
row,Drug metabolism,SMILES
1,metabolite_detected,C=C1/C(=C\C=C2/CCC[C@]3(C)[C@@H]([C@H](C)CC[C@H](O)C(C)(C)O)CC[C@@H]23)C[C@@H](O)C[C@@H]1O

# Test system: Liver microsome
# Experiment: Drug metabolism in human liver microsomes assessed as IC50 for ketoconazole-mediated inhibition of metabolite formation at 20 uM after 30 mins by LC/MS analysis
# Type: ADME
# Settings: 0.5 h
row,IC50 [nM],SMILES
1,565,C=C1/C(=C\C=C2/CCC[C@]3(C)[C@@H]([C@H](C)CC[C@H](O)C(C)(C)O)CC[C@@H]23)C[C@@H](O)C[C@@H]1O

# Test system: not listed separately
# Experiment: Drug metabolism in dexamethasone treated CD1 mouse liver microsomes assessed as metabolite formation at 20 uM after 30 mins by LC/MS analysis in presence of NADPH and CYP2B inhibitor orphenadrine
# Type: ADME
# Settings: 0.5 h
row,Drug metabolism,SMILES
1,metabolite_detected,C=C1/C(=C\C=C2/CCC[C@]3(C)[C@@H]([C@H](C)CC[C@H](O)C(C)(C)O)CC[C@@H]23)C[C@@H](O)C[C@@H]1O

# Test system: not listed separately
# Experiment: Drug metabolism in prednisone treated CD1 mouse liver microsomes assessed as metabolite formation at 20 uM after 30 mins by LC/MS analysis in presence of NADPH and CYP1A2 inhibitor furafyline
# Type: ADME
# Settings: 0.5 h
row,Drug metabolism,SMILES
1,metabolite_detected,C=C1/C(=C\C=C2/CCC[C@]3(C)[C@@H]([C@H](C)CC[C@H](O)C(C)(C)O)CC[C@@H]23)C[C@@H](O)C[C@@H]1O

# Test system: not listed separately
# Experiment: Drug metabolism in CD1 mouse liver microsomes assessed as metabolite formation at 20 uM after 30 mins by LC/MS analysis in presence of NADPH and CYP2A inhibitor 8-methoxypsoralen
# Type: ADME
# Settings: 0.5 h
row,Drug metabolism,SMILES
1,metabolite_detected,C=C1/C(=C\C=C2/CCC[C@]3(C)[C@@H]([C@H](C)CC[C@H](O)C(C)(C)O)CC[C@@H]23)C[C@@H](O)C[C@@H]1O

# Test system: not listed separately
# Experiment: Drug metabolism in dexamethasone treated CD1 mouse liver microsomes assessed as metabolite formation at 20 uM after 30 mins by LC/MS analysis in presence of NADPH and CYP1A1 inhibitor alpha-naphthoflavone
# Type: ADME
# Settings: 0.5 h
row,Drug metabolism,SMILES
1,metabolite_detected,C=C1/C(=C\C=C2/CCC[C@]3(C)[C@@H]([C@H](C)CC[C@H](O)C(C)(C)O)CC[C@@H]23)C[C@@H](O)C[C@@H]1O

# Test system: not listed separately
# Experiment: Drug metabolism in prednisone treated CD1 mouse liver microsomes assessed as metabolite formation at 20 uM after 30 mins by LC/MS analysis in presence of NADPH and CYP2D inhibitor quinine
# Type: ADME
# Settings: 0.5 h
row,Drug metabolism,SMILES
1,metabolite_detected,C=C1/C(=C\C=C2/CCC[C@]3(C)[C@@H]([C@H](C)CC[C@H](O)C(C)(C)O)CC[C@@H]23)C[C@@H](O)C[C@@H]1O

# Test system: not listed separately
# Experiment: Drug metabolism in dexamethasone treated CD1 mouse liver microsomes assessed as metabolite formation at 20 uM after 30 mins by LC/MS analysis in presence of NADPH and CYP2A inhibitor 8-methoxypsoralen
# Type: ADME
# Settings: 0.5 h
row,Drug metabolism,SMILES
1,metabolite_detected,C=C1/C(=C\C=C2/CCC[C@]3(C)[C@@H]([C@H](C)CC[C@H](O)C(C)(C)O)CC[C@@H]23)C[C@@H](O)C[C@@H]1O
